EC50 and Ki data for two compounds are collected here from patent US6348464B1, “Pyrrolecarbonylimino derivatives as naaladase inhibitors” (Guilford Pharmaceuticals, Inc., priority 1999, dated 2002).

Each structure is given as a SMILES string. Counter-ions that a name gives are not always drawn. Like-named read-outs stand apart in the source and are kept apart here. Some results are limits rather than exact numbers.

Experiment [1] has as its system cortical cell cultures. Description: In vitro assay on ischemia (potassium cyanide and 2-deoxyglucose insult). In kind it is cell-based. The following applies: 1 h, read-out: EC50, concentration required to cause a 50% reduction in glutamate toxicity following an ischemic insult. As for the experimental part:
To examine the in vitro effect of the compounds of formula I on ischemia, cortical cell cultures were treated with various compounds of formula I during an ischemic insult utilizing potassium cyanide and 2-deoxyglucose, and for one hour thereafter (for experimental details, see Vornov et al., J. Neurochem., Vol. 65, No. 4, pp. 1681-1691 (1995)). Neuroprotective effect is expressed as EC50, the concentration of the compound which is required to cause a 50% reduction in glutamate toxicity following an ischemic insult.

Experiment [2] concerns the target T1, NAALADase (Homo sapiens, UniProt Q04609).
T1 construct: from tissue
Description: In vitro inhibition of NAALADase activity. As to conditions: 3-H-NAAG substrate, 37° C.; read-out: K1 (nM), in vitro inhibition of NAALADase activity. In kind it is biochemical. As for the experimental part: Protocol For Assaying In Vitro Inhibition of NAALADase Activity
The following were combined in each assay tube: 100 μL of 10 mM CoCl2, 250 μL of 200 mM Tris chloride, 100 μL tissue, 100 μL of 10 mM NAALADase inhibitor in Bakers H2O, and Bakers H2O to make a total volume of 950 μL. Each tube was then incubated for 10 minutes in a 37° C. water bath. 50 μL of 3-H-NAAG was then added to each assay tube and incubated for an additional 15 minutes in a 37° C. water bath. The assay was stopped by adding 1.0 ml of 0.1 M sodium phosphate.
Glutamate released by the action of the NAALADase enzyme was separated from the assay solution using an anion exchange resin. The resin was equilibrated to 25° C., 2.0 ml of the resin was added to a Pasteur pipette pre-loaded with a single glass bead, and each column was washed twice with distilled H2O. A column was placed over a scintillation vial and 200 μL of an assay sample was loaded onto the column. After draining, glutamate was eluted using two 1.0 ml washes of 1 M formic acid. After addition of 10 ml of scintillation cocktail, each sample was counted for 2 minutes on a scintillation counter.

T1 sequence (Q04609 whole entry): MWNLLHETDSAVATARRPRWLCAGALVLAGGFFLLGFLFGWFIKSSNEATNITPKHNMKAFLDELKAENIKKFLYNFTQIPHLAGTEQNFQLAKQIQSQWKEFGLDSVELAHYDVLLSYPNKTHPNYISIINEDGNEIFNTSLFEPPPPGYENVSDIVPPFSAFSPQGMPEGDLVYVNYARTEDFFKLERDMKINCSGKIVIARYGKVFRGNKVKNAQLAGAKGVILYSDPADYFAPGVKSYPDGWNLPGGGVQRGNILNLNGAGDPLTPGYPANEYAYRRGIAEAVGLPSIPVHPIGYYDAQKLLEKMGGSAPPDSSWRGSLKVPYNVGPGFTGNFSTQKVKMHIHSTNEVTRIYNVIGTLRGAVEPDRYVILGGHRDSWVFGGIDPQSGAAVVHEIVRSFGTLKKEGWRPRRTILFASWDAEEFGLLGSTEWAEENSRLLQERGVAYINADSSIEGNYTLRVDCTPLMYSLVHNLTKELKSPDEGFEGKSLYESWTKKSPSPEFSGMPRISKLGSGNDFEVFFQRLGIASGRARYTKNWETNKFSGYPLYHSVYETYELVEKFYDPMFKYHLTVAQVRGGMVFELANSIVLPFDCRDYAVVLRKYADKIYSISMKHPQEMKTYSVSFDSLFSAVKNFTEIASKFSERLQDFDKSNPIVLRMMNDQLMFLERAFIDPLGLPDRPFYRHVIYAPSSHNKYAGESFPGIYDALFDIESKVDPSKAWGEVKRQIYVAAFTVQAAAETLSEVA

For `O=C(Nc1ccc(S(=O)(=O)O)c2cc(S(=O)(=O)O)cc(S(=O)(=O)O)c12)c1cccc([N+](=O)[O-])c1` [8-(3-nitrobenzamido)-1,3,5-naphthalenetrisulfonic acid], in experiment [1] (cortical cell cultures, treated during potassium cyanide and 2-deoxyglucose insult and for one hour thereafter), the EC50 is above 1000 nM. For the same compound, the Ki in experiment [2] was determined as 20200 nM.

Turning to `Cc1ccc(C(=O)Nc2ccc(S(=O)(=O)O)c3cc(S(=O)(=O)O)cc(S(=O)(=O)O)c23)cc1NC(=O)c1cccc(NC(=O)Nc2cccc(C(=O)Nc3cc(C(=O)Nc4ccc(S(=O)(=O)O)c5cc(S(=O)(=O)O)cc(S(=O)(=O)O)c45)ccc3C)c2)c1` [Suramin, sodium salt, 8,8′-[carbonylbis[imino-3,1-phenylenecarbonylimino (4-methyl-3,1-phenylene)carbonylimino]]bis-1,3,5-naphthalenetrisulfonic acid hexasodium salt], in experiment [1], the EC50 amounted to 24.7 nM. In addition, the Ki in experiment [2] is 527 nM.
